The target in the experiment is Protease (Human immunodeficiency virus 1, UniProt Q9YQ12). In words: Inhibition of HIV1 protease.
Sequence of Protease (Q9YQ12 whole entry): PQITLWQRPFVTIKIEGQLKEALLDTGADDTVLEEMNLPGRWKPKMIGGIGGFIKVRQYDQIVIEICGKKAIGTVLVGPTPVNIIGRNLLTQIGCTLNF

For the compound `CC(=O)N[C@H](C(=O)N[C@H](C(=O)N[C@@H](CC(C)C)[C@@H](O)CC(=O)N[C@@H](C)C(=O)N[C@@H](CC(C)C)[C@@H](O)CC(=O)O)C(C)C)C(C)C` [ACETYLPEPSTATIN], the inhibition constant Ki (commonly the dissociation constant of the complex between target and ligand, obtained from inhibition or displacement) came to 0.02 nM.

The values are drawn from ChEMBL document CHEMBL2163293, “Rational approaches to improving selectivity in drug design” (J Med Chem, 2012).
